The test system of test [1] is HCT-116. In words: Anticancer activity against human HCT-116 cells assessed as reduction in cell growth by MTT assay. The test is classed as functional, cell-based. Background: Tetrazolium dyes change colour on reduction, which living cells bring about.
The test system of test [2] is HCT-116. In words: Anti-migratory activity against human HCT116 cells assessed as reduction in cell migration at 0.05 uM incubated for 24 hrs by wound healing assay relative to control. The test is classed as functional. More on the design: scale not given: the % may be the effect or the level left.
Test [3] has as its system LN-229. As to the kind of experiment: Growth inhibition of human LN-229 cells incubated for 48 hrs by trypan blue exclusion assay. The test is classed as functional.
Test [4] has as its system A549. In words: Antiproliferative activity against human A549 cells. The test is classed as functional, cell-based.
For test [5], the system named is SW1573. In words: Antiproliferative activity against human SW1573 cells. The test is classed as functional, cell-based.
Test [6] relates to HBL-100. In words: Antiproliferative activity against human HBL-100 cells. The test is classed as functional, cell-based.
The test system of test [7] is T47D. As to the kind of experiment: Antiproliferative activity against human T47D cells. The class given is functional, cell-based.
In test [8] the test system is WiDr. As to the kind of experiment: Antiproliferative activity against human WiDr cells. The class given is functional, cell-based.
Test [9] deals with T1, Amine oxidase [flavin-containing] A (Homo sapiens, UniProt P21397).
T1 sequence (P21397 whole entry): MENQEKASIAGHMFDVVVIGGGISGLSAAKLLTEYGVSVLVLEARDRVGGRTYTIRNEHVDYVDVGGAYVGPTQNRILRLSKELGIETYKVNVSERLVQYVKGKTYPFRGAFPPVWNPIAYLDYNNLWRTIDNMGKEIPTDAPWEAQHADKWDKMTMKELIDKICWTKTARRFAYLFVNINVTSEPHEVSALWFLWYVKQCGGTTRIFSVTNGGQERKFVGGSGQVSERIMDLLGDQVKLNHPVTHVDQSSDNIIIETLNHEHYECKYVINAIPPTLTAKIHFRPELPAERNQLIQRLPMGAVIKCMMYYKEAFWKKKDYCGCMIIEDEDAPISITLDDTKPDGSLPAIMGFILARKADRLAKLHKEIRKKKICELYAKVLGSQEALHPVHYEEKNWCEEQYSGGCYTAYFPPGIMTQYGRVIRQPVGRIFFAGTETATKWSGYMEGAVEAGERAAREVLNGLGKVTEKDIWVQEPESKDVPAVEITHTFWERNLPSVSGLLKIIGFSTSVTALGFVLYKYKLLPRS
In words: Inhibition of MAO-A (unknown origin).

Test [10] concerns the target T2, Amine oxidase [flavin-containing] B (Homo sapiens, UniProt P27338).
T2 sequence (P27338 whole entry): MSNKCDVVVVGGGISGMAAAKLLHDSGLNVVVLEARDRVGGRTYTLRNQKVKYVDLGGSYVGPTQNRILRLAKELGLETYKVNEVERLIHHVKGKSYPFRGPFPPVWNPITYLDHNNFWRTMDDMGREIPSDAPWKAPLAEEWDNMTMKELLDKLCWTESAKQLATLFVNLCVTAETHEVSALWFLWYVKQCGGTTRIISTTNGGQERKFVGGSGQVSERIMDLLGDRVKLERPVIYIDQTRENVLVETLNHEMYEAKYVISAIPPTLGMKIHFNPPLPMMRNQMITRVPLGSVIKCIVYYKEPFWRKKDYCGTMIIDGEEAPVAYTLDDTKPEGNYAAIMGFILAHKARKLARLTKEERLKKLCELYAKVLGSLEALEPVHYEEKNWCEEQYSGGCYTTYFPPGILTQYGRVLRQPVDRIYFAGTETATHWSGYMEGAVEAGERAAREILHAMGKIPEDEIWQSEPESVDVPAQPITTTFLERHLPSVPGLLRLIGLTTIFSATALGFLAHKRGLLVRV
In words: Inhibition of human MAO-B.

Test [11] relates to HCT-116. As to the kind of experiment: Antiproliferative activity against human HCT-116 cells by MTT assay. The class given is functional, cell-based.
Test [12] concerns MCF7. In words: Antiproliferative activity against human MCF7 cells by MTT assay. The class given is functional, cell-based.
Test [13] concerns SK-OV-3. In words: Antiproliferative activity against human SK-OV-3 cells by MTT assay. The test is classed as functional, cell-based.
Test [14] concerns LNCaP. As to the kind of experiment: Antiproliferative activity against human LNCap cells assessed as reduction in cell viability incubated for 72 hrs by resazurin dye based assay. The test is classed as functional.
Test [15] addresses T1, Amine oxidase [flavin-containing] A. As to the kind of experiment: Binding affinity to human recombinant MAO-A assessed as inhibition constant by MAO-GloTM method.
Test [16] deals with T2, Amine oxidase [flavin-containing] B. As to the kind of experiment: Binding affinity to MAO-B (unknown origin) measured by MAO-GloTM method.

These results are taken from ChEMBL document CHEMBL6103558, “The potential of MAO inhibitors as chemotherapeutics in cancer: A literature survey” (Eur J Med Chem, 2025).

Consider `O=C(Cn1cc(Cn2c(=O)c(Cc3ccccc3)nc3ccccc32)nn1)NNC(=S)Nc1ccccc1`, for which the IC50 (commonly the concentration at which inhibition is half-maximal) in [1] amounted to 7.85 µM. Besides, in test [2], the Activity was found to be 75%.
Consider `COc1ccccc1NCCCCCCC(=O)Nc1ccc(CCc2ccc(NC(=O)CCCCCCNc3ccccc3OC)cc2)cc1`, for which the GI50 (as a rule, the concentration giving 50% growth inhibition) in [3] was below 1 µM.
As for `O=[N+]([O-])c1ccc(/C=N/Nc2nc(-c3ccccc3)c[se]2)cc1`, the IC50 in test [4] amounted to 24 µM; in test [5], 24 µM; in test [6], 24 µM; in test [7], 24 µM; in test [8] it was 24 µM; in test [9] it was 7.2 µM.
The molecule `C/C(=N\Nc1nc(-c2cccc([N+](=O)[O-])c2)cs1)c1cccs1` showed an IC50 in [10] of 0.0068 µM.
Consider `CN1CCC2=C(C1)C(c1c[nH]c3ccc(Br)cc13)c1cc(Cl)ccc1O2` (centres undefined), for which the 50% inhibitory concentration (IC50) in [11], in test [12] and in test [13] was 4.83 µM throughout.
Consider `O=c1cc(-c2ccccc2)oc2c(Cl)cc(Cl)cc12`, for which, in [14], the half-maximal inhibitory concentration (IC50) is around 10 µM. Further, in [15], the Ki (in general, the dissociation constant of the complex between target and ligand, obtained from inhibition or displacement) stood at 0.0074 µM.
Take `O=C(Cn1cc(Cn2c(=O)c(Cc3ccccc3)nc3ccccc32)nn1)N/N=C/c1cccnc1`: in test [1], the IC50 amounted to 18 µM. Further, the Activity in [2] is listed as 75%.
In the case of `C=C(CCCCCCNc1ccccc1OC)Nc1ccc(CCc2ccc(NC(=C)CCCCCCNc3ccccc3OC)cc2)cc1`, the Ki in test [16] was below 1 µM.
In test [10], `C/C(=N\Nc1nc(-c2cccc([N+](=O)[O-])c2)cs1)c1ccsc1` had an IC50 of 0.0025 µM.
